Measured values reported in publication PMC9323266, “Competitive Metabolism of Polycyclic Aromatic Hydrocarbons (PAHs): An Assessment Using In Vitro Metabolism and Physiologically Based Pharmacokinetic (PBPK) Modeling” (International Journal of Environmental Research and Public …, 2022).
pKi: −log10 of the molar value. Like-named read-outs stand apart in the source and are kept apart here.

Legend:
[1] = In vitro metabolism (substrate disappearance) in pooled human liver microsomes; type: in vitro ADME; details: both sexes; for microsomal CLint: human, microsomes, pH 7.4, human hepatic microsomes
Protocol: (§1) Pooled human liver microsome samples were obtained from Sekisui Xenotech, LLC (Kansas City, KS, USA). Pooled samples contained contributions from 200 individuals having equal male:female ratio and predominantly from humans between 19 and 78 years of age (3 individuals 10–18 years old).
(§2) Briefly, within 500 µL total volume, reactions consisted of MgCl2 (3 mM), microsomes (2.0 mg/mL), 0.1 M phosphate buffer (pH 7.4), and excess NADPH (1.5 mM). Control samples using inactivated microsomes absent of NADPH were also included. Microsomes were preactivated via 37 °C incubation on a thermal shaker for 5 min. […] Samples were incubated at 37 °C for 0–30 min or 0–60 min, respectively. Reactions were quenched by adding 500 µL 0.9 M H2SO4, and samples were immediately placed on ice until extraction. A standard curve was prepared (0.015 µM–25.0 µM) in inactivated microsomes. An internal standard was added to each quenched sample (DBC for BaP kinetics reactions and BaP for DBC kinetics reactions). Experiments were performed in triplicate.
(§3) Analytes were extracted from samples with liquid–liquid extraction and measured using high-performance liquid chromatography (HPLC). First, BaP, DBC, or retene was added as an internal standard depending on incubations conditions being tested. Samples were extracted using three 500 µL volumes of ethyl acetate. Extracts were dried under a gentle stream of nitrogen and resolubilized in 500 µL methanol. Analytes were quantified by reverse phase HPLC using an Agilent 1260 Infinity HPLC system equipped with an Agilent G4290B variable wavelength detector and an Agilent G1321B SPECTRA fluorescence detector (Santa Clara, CA, USA). Sample (10 µL) was injected into an Ascentis 25 cm × 4.6 mm, 5 µm C18 column (Sigma-Aldrich, St. Louis, MO, USA). A gradient of water and acetonitrile from 55:45 to 0:100 was employed from 0 to 10 min and then was held at 100% acetonitrile until 22 min at a flow rate of 0.95 mL/min. […] Excitation and emission wavelengths were 230 nm and 430 nm, respectively. […] Quantification was accomplished using a linear regression fit to an external calibration curve prepared in tandem with samples.
(§4) As with previous in vitro PAH metabolism studies conducted in our lab, metabolism rates were calculated based on substrate disappearance. […] Confidence intervals of metabolism rates were calculated using a nonparametric bootstrap, where metabolism rates were resampled with replacement at each concentration, and the regression was repeated on the resampled dataset (n = 1000).
(§5) These two models include a Michaelis–Menten clearance equation for non-saturable high-capacity/low-affinity enzymes (Equation (2)) and a double Michaelis–Menten equation for saturable high-capacity/low-affinity enzymes (Equation (3)). Models were optimized using a maximum likelihood objective. The Bayesian information criterion (BIC) was used to judge the best-fit model for evaluating metabolism. For Michaelis–Menten kinetics, intrinsic clearance values (Clint) of the first order phase were estimated by dividing the Vmax by the respective Km. Fit parameter confidence intervals were calculated using a parametric bootstrap (n = 1000), where each best fit model was re-optimized to sampled metabolic rates assuming a normal distribution at each […]:(1) dS/dt=Vmax×S/Km+S (2) dS/dt=Vmax1×S/Km1+S+Clint2×S (3) dS/dt=Vmax1×S/Km1+S+Vmax2×S/Km2+S

human hepatic microsomes = experiment: as above; type: in vitro ADME; details: human hepatic microsomes
Protocol: as §1, §2, §3, §4, §5

[2] = system: DBC metabolism in human hepatic microsomes; experiment: Competitive inhibition of DBC metabolism in human hepatic microsomes; type: in vitro ADME; details: both sexes, human, pH 7.4
Protocol: (§6) Competitive inhibition of PAH metabolism was measured using conditions described above. […] Each experimental condition (e.g., substrate, concentration, time point, etc.) was conducted in triplicate.
(§7) Analytes were extracted from samples with liquid–liquid extraction and measured using high-performance liquid chromatography (HPLC). First, BaP, DBC, or retene was added as an internal standard depending on incubations conditions being tested. Samples were extracted using three 500 µL volumes of ethyl acetate. Extracts were dried under a gentle stream of nitrogen and resolubilized in 500 µL methanol. Analytes were quantified by reverse phase HPLC using an Agilent 1260 Infinity HPLC system equipped with an Agilent G4290B variable wavelength detector and an Agilent G1321B SPECTRA fluorescence detector (Santa Clara, CA, USA). […] Quantification was accomplished using a linear regression fit to an external calibration curve prepared in tandem with samples.
as §4, with “1000). […]” for “1000).”

[3] = molecular target: dibenzo[def,p]chrysene (DBC) metabolism in human hepatic microsomes; experiment: as above; type: in vitro ADME; details: substrate DBC 0.17 µM initial, human hepatic microsomes, apparent Ki, Equation (4); read-out: Inhibition constant (Ki) of competitive inhibitor to DBC metabolism
Protocol: as §6, §7
as §4, with “1000). […]” for “1000).”

[4] = set-up: method as in PMID 34933053; details: cited from earlier work
CYP1A1 and CYP2C19 = details: Supersomes expressing human CYPs; cited from earlier work
CYP3A4 = details: Supersomes expressing human CYPs; cited from earlier work
[5] = system: benzo[a]pyrene (BaP) metabolism in human hepatic microsomes; experiment: Competitive inhibition of BaP metabolism in human hepatic microsomes; type: in vitro ADME
Protocol: as §6, §7
as §4, with “1000). […]” for “1000).”

[6] = cited from earlier work; for Carcinogenic (classifying agencies): classified as Suspected, Possible, Probable, or Confirmed carcinogen in animal models or humans by EPA, IARC or ACGIH
[7] = Michaelis-Menten clearance model fit, high-affinity/low-capacity enzyme

For `c1ccc2c(c1)cc1ccc3cccc4ccc2c1c34` [BaP, benzo[a]pyrene], the microsomal CLint ([1]; first order phase, Vmax divided by Km, read-out: Clint 1) was 72 µL/min/mg, the microsomal CLint ([1]; non-saturable low-affinity/high-capacity enzyme, read-out: Clint 2) was 1.2 µL/min/mg and the Km ([1]; pH 7.4, human hepatic microsomes, Michaelis-Menten clearance model fit, high-affinity/low-capacity enzyme, read-out: Km 1) was 0.088 µM. For the same compound, the “Intrinsic clearance compared to that of DBC” value (human hepatic microsomes) was “nearly five-fold faster”, the Vmax1 (human hepatic microsomes; [7]) was 0.0063 nmol/min/mg Micro and the inhibition at 1 µM [2] was 62%. For the same compound, the pKi [3] was 7.21, the “log Kow” value [4] was 6.13 and the “Share of BaP-7,8-diol produced by CYP1A1 and CYP2C19” value (CYP1A1 and CYP2C19) was 96%. The “Share of 3-hydroxy-BaP produced by CYP3A4” value (CYP3A4) was 53%.
With `c1ccc2c(c1)cc1ccc3cccc4c5ccccc5c2c1c34` [DBC, dibenzo[def,p]chrysene] the “Rates of metabolism, times slower than rates of BaP metabolism” value (human hepatic microsomes) was 3–5 times, the Vmax1 (human hepatic microsomes; [7]) was 0.0009 nmol/min/mg Micro and the Km (human hepatic microsomes; Michaelis-Menten clearance model fit, high-affinity/low-capacity enzyme, read-out: Km 1) was 0.06 µM. For the same compound, the “Clint 1” value (human hepatic microsomes; first order phase, Vmax divided by Km) was 0.015 mL/min, the “Clint 2” value (human hepatic microsomes; non-saturable low-affinity/high-capacity enzyme) was 0.0017 mL/min and the “Inhibition of the rate of BaP metabolism” value ([5]; inhibitor ≥1 µM, 0.14 µM BaP initial substrate concentration) was no less than 48%. For the same compound, the pKi ([5]; read-out: Inhibition constant (Ki) of competitive inhibitor to BaP metabolism, substrate BaP 0.14-0.18 µM initial, human hepatic microsomes, apparent Ki, Equation (4)) was 6.36, the “log Kow” value [4] was 7.71 and the “Relative Potency Factor” value ([6]; cancer potency relative to BaP index compound) was 30.
For `c1ccc2cc3c(ccc4ccccc43)cc2c1` [benzo(a)anthracene], the “Carcinogenic (classifying agencies)” value [6] is given as “EPA, IARC, ACGIH”.
For `c1ccc2c(c1)ccc1c3ccccc3ccc21` [chrysene], the “Carcinogenic (classifying agencies)” value [6] is given as “EPA, ACGIH”.
In the case of `c1ccc2ccccc2c1` [naphthalene], the “Carcinogenic (classifying agencies)” value [6] is given as “EPA, IARC, ACGIH”.
